Test system: Wistar rats
Test: Spontaneous locomotor activity
Assay type: in vivo, rat
Conditions: 15 mg/kg i.p., 45 min

Structure (SMILES): C#Cc1ccc2c(c1)C(c1ccccc1F)=N[C@H](C)c1c(C(=O)NC)ncn1-2 [MP-III-022, (R)-8-Ethynyl-6-(2-fluorophenyl)-N,4-dimethyl-4H-benzo[f]imidazo[1,5-a][1,4]diazepine-3-carboxamide]
- Spontaneous locomotor activity, total distance traveled: slight hyperlocomotion

— publication PMC5107132 (European journal of pharmacology, 2016)
